Measurements published in patent US9982005B2, “Macrolides and methods of their preparation and use” (President and Fellows of Harvard College, priority 2013, dated 2018).
Values after ≈ are worked out from the molar mass of the structure shown. Read-outs that look alike come from different tables or passages of the source.

Columns and labels:
EC107 E. coli ATCC25922 = experiment: broth dilution MIC, E. coli EC107; assay type: cell-based; details: Escherichia coli, read-out: MIC
In short: (§1)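 CLSI procedure, broth dilution format, endpoint = MIC. Azithromycin as control macrolide.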

[1] = system: Spn160 S. pneumoniae ermB unknown mefA positive; experiment: broth dilution MIC, S. pneumoniae Spn160; assay type: cell-based; details: Streptococcus pneumoniae; Spn160 S. pneumoniae ermB unknown mefA positive; read-out: MIC
Text: (§2) We have collected MIC data for a total of 50 novel macrolides that this platform has produced against over 21 unique strains of B. subtilis, E. coli, S. aureus, S. pneumoniae, and H. influenzae, including several multidrug-resistant strains, with a special focus on macrolide resistant mechanisms (vide supra). Azithromycin was included as a control macrolide. CLSI standard procedures for broth dilution MIC determination were used. […] These genotypes can be constitutive or inducible. The finding that C4-epi (unnatural) isomers of the “azaketolide” macrolide class have enhanced activities relative to C4 natural isomers is very exciting.

HI281 H. influenzae = experiment: broth dilution MIC, H. influenzae HI281; assay type: cell-based; details: Haemophilus influenzae
Text: as §2

[2] = system: Spn1537 S. pneumoniae ermB positive mefA positive; experiment: broth dilution MIC, S. pneumoniae Spn1537; assay type: cell-based; details: Streptococcus pneumoniae
Text: as §2

[3] = system: Spn1427 S. pneumoniae ermB positive mefA negative; experiment: broth dilution MIC, S. pneumoniae Spn1427; assay type: cell-based; details: Streptococcus pneumoniae
Text: as §2

[4] = system: SA183 S. aureus ermA positive msrA unknown; experiment: broth dilution MIC, S. aureus SA183; assay type: cell-based; details: Staphylococcus aureus
Text: as §2

[5] = system: BS1723 B. subtilis BS168 WT wild type; experiment: broth dilution MIC, B. subtilis BS1723; assay type: cell-based; details: Bacillus subtilis, BS1723 B. subtilis BS168 WT wild type; read-out: MIC
In short: as §1

[6] = system: SA557 S. aureus ermA unknown msrA positive; experiment: broth dilution MIC, S. aureus SA557; assay type: cell-based; details: Staphylococcus aureus; SA557 S. aureus ermA unknown msrA positive; read-out: MIC
Text: as §2

[7] = system: Spn 106 S. pneumonia ATCC49619; experiment: broth dilution MIC, S. pneumoniae Spn 106; assay type: cell-based; details: Streptococcus pneumoniae; Spn 106 S. pneumonia ATCC49619; read-out: MIC
Text: as §2

BS1725 B. subtilis ermC = experiment: broth dilution MIC, B. subtilis BS1725; assay type: cell-based; details: Bacillus subtilis
In short: as §1

EC878 E. coli tolC = experiment: broth dilution MIC, E. coli EC878; assay type: cell-based; details: Escherichia coli
In short: as §1

[8] = system: SA1707 S. aureus ermA negative msrA positive; experiment: broth dilution MIC, S. aureus SA1707; assay type: cell-based; details: Staphylococcus aureus
Text: as §2

[9] = system: HI175 H. influenzae ATCC49247; experiment: broth dilution MIC, H. influenzae HI175; assay type: cell-based; details: Haemophilus influenzae
Text: as §2

EC882 E. coli imp = experiment: broth dilution MIC, E. coli EC882; assay type: cell-based; details: Escherichia coli
In short: as §1

[10] = system: SA101 S. aureus ATCC29213; experiment: broth dilution MIC, S. aureus SA101; assay type: cell-based; details: Staphylococcus aureus, ATCC29213, SA101 S. aureus ATCC29213; read-out: MIC
In short: as §1

[11] = system: Spn1533 S. pneumoniae ermB positive mefA positive; experiment: broth dilution MIC, S. pneumoniae Spn1533; assay type: cell-based; details: Streptococcus pneumoniae
Text: as §2

[12] = system: Spn1509 S. pneumoniae ermB positive mefA negative; experiment: broth dilution MIC, S. pneumoniae Spn1509; assay type: cell-based; details: Streptococcus pneumoniae; Spn1509 S. pneumoniae ermB positive mefA negative; read-out: MIC
Text: as §2

[13] = system: SA506 S. aureus ermA positive msrA unknown; experiment: broth dilution MIC, S. aureus SA506; assay type: cell-based; details: Staphylococcus aureus
Text: as §2

[14] = system: SA1708 S. aureus ermA positive msrA negative; experiment: broth dilution MIC, S. aureus SA1708; assay type: cell-based; details: Staphylococcus aureus
Text: as §2

[15] = system: SA418 S. aureus ermA negative msrA positive; experiment: broth dilution MIC, S. aureus SA418; assay type: cell-based; details: Staphylococcus aureus
Text: as §2

E. faecalis strains = experiment: MIC against E. faecalis strains (Table M8); assay type: cell-based; details: Enterococcus faecalis, E. faecalis 29212
S. aureus strains = experiment: MIC against S. aureus strains (Table M7); assay type: cell-based; details: Staphylococcus aureus
In short: as §1

H. influenzae strains = experiment: MIC against H. influenzae strains (Table M8); assay type: cell-based; details: Haemophilus influenzae
In short: as §1

E. coli strains = experiment: MIC against E. coli strains (Table M7); assay type: cell-based; details: Escherichia coli, ATCC25922, E. coli ATCC 25922
In short: as §1

A. baumannii strains = experiment: MIC against A. baumannii strains (Table M8); assay type: cell-based; details: Acinetobacter baumannii, BAA747, A. baumannii BAA747-1
S. pneumoniae strains = experiment: MIC against S. pneumoniae strains (Tables M7, M8); assay type: cell-based; details: Streptococcus pneumoniae
Text: CLSI standard procedures for broth dilution MIC determination were used. […] These genotypes can be constitutive or inducible.

K. pneumoniae strains = experiment: MIC against K. pneumoniae strains (Table M8); assay type: cell-based; details: Klebsiella pneumoniae, K. pneumoniae 10031
[16] = from CC[C@@H](O)[C@@]1(C)OC(=O)N(CCCCN=[N+]=[N-])[C@@H]1[C@@H](C)NC[C@H](C)C[C@@](C)(OC)[C@H](O[C@@H]1OC(C)CC(N(C)C)C1OC(=O)OC)[C@@H](C)C1=C(C)C(=O)OC(C)(C)O1; ester bond; toluene; 3.97 mM; 111.0 °C; 40.0 h
[17] = ATCC29213, S. aureus ATCC 29213, read-out: MIC S. aureus (ATCC 29213)
[18] = S. aureus 506, read-out: MIC S. aureus (506)
[19] = S. aureus 1708, read-out: MIC S. aureus (1708)
[20] = USA300, S. aureus USA300, read-out: MIC S. aureus (USA300)
[21] = H. influenzae 49247, read-out: MIC H. influenzae (49247)
[22] = H. influenzae 49766, read-out: MIC H. influenzae (49766)
[23] = S. pneumoniae 160, read-out: MIC S. pneumonae (160)
[24] = S. pneumoniae 1509, read-out: MIC S. pneumoniae (1509)
[25] = S. pneumoniae 1533, read-out: MIC S. pneumoniae (1533)
[26] = S. pneumoniae 1537, read-out: MIC S. pneumoniae (1537)
[27] = S. pneumoniae 49619, read-out: MIC S. pneumoniae (49619)

| SMILES | MIC (EC107 E. coli ATCC25922) | MIC [1] | MIC (HI281 H. influenzae) | MIC [2] | MIC [3] | MIC [4] | MIC [5] | MIC [6] | MIC [7] | MIC (BS1725 B. subtilis ermC; BS1725 B. subtilis ermC (+ery)) | MIC (EC878 E. coli tolC) | MIC [8] | MIC [9] | MIC (EC882 E. coli imp) | MIC [10] | MIC [11] | MIC [12] | MIC [13] | MIC [14] | MIC [15] | further results |
| --- | --- | --- | --- | --- | --- | --- | --- | --- | --- | --- | --- | --- | --- | --- | --- | --- | --- | --- | --- | --- | --- |
| CC[C@H]1OC(=O)C(C)(F)C(=O)[C@@H](C)[C@@H](O[C@@H]2OC(C)CC(N(C)C)C2O)[C@](C)(OC)C[C@@H](C)CN[C@H](C)[C@H]2N(CCCCn3cc(-c4ccccn4)nn3)C(=O)O[C@]12C (stereo partly drawn) [FSM-20716] | > 32 µg/mL | 0.5 µg/mL (≈ 0.601 µM) | > 32 µg/mL | > 32 µg/mL | > 32 µg/mL | > 32 µg/mL | 8 µg/mL (≈ 9.62 µM) | 16 µg/mL (≈ 19.2 µM) | 0.25 µg/mL (≈ 0.3 µM) | > 32 µg/mL | 1 µg/mL (≈ 1.2 µM) | 16 µg/mL (≈ 19.2 µM) | 8 µg/mL (≈ 9.62 µM) | 0.25 µg/mL (≈ 0.3 µM) | 8 µg/mL (≈ 9.62 µM) | > 32 µg/mL | 8 µg/mL (≈ 9.62 µM) | > 32 µg/mL | 32 µg/mL (≈ 38.5 µM) | 16 µg/mL (≈ 19.2 µM) | MIC (BS1725 B. subtilis ermC; BS1725 B. subtilis ermC (−ery)): 4 µg/mL (≈ 4.81 µM) |
| CC[C@H]1OC(=O)C(C)(F)C(=O)[C@@H](C)[C@@H](O[C@@H]2OC(C)CC(N(C)C)C2O)[C@](C)(OC)C[C@@H](C)CN[C@H](C)[C@H]2N(CCCCn3cc(-c4cccc(N)c4)nn3)C(=O)O[C@]12C (stereo partly drawn) [FSM-20720] | > 32 µg/mL | 0.5 µg/mL (≈ 0.591 µM) | 32 µg/mL (≈ 37.8 µM) | > 32 µg/mL | 8 µg/mL (≈ 9.46 µM) | > 32 µg/mL | 4 µg/mL (≈ 4.73 µM) | 8 µg/mL (≈ 9.46 µM) | 0.125 µg/mL (≈ 0.148 µM) | > 32 µg/mL | 1 µg/mL (≈ 1.18 µM) | 16 µg/mL (≈ 18.9 µM) | 4 µg/mL (≈ 4.73 µM) | 1 µg/mL (≈ 1.18 µM) | 4 to 8 µg/mL (≈ 4.73 to 9.46 µM) | > 32 µg/mL | 2 µg/mL (≈ 2.36 µM) | > 32 µg/mL | 16 µg/mL (≈ 18.9 µM) | 8 µg/mL (≈ 9.46 µM) | MIC (E. faecalis strains): 2 µg/mL (≈ 2.36 µM); MIC (S. aureus strains; [17]): 4 µg/mL (≈ 4.73 µM); MIC (S. aureus strains; [18]): > 32 µg/mL; MIC (S. aureus strains; [19]): 8 µg/mL (≈ 9.46 µM); MIC (S. aureus strains; [20]): 8 µg/mL (≈ 9.46 µM); MIC (H. influenzae strains; [21]): 8 µg/mL (≈ 9.46 µM); MIC (H. influenzae strains; [22]): 32 µg/mL (≈ 37.8 µM); MIC (E. coli strains): > 32 µg/mL; MIC (A. baumannii strains): > 32 µg/mL; MIC (S. pneumoniae strains; [23]): 0.5 µg/mL (≈ 0.591 µM); MIC (S. pneumoniae strains; [24]): 8 µg/mL (≈ 9.46 µM); MIC (S. pneumoniae strains; [25]): > 32 µg/mL; MIC (S. pneumoniae strains; [26]): > 32 µg/mL; MIC (S. pneumoniae strains; [27]): 1 µg/mL (≈ 1.18 µM); MIC (K. pneumoniae strains): 8 µg/mL (≈ 9.46 µM) |
| CC[C@H]1OC(=O)[C@H](C)C(=O)[C@H](C)[C@@H](O[C@@H]2OC(C)CC(N(C)C)C2OC(=O)OC)[C@](C)(OC)C[C@@H](C)CN[C@H](C)[C@H]2N(CCCCN=[N+]=[N-])C(=O)O[C@]12C (stereo partly drawn) | – | – | – | – | – | – | – | – | – | – | – | – | – | – | – | – | – | – | – | – | ring closure, yield of all isomers [16]: 92% |
| CC[C@H]1OC(=O)C(C)(F)C(=O)[C@H](C)[C@@H](O[C@@H]2OC(C)CC(N(C)C)C2O)[C@](C)(OC)C[C@@H](C)CN(C)[C@H](C)[C@H]2N(CCCCn3cc(-c4cccc(N)c4)nn3)C(=O)O[C@]12C (stereo partly drawn) [FSM-20797] | – | 0.125 µg/mL (≈ 0.145 µM) | 32 µg/mL (≈ 37.2 µM) | > 32 µg/mL | 32 µg/mL (≈ 37.2 µM) | > 32 µg/mL | – | 8 µg/mL (≈ 9.3 µM) | ≤ 0.0156 µg/mL | – | – | 8 µg/mL (≈ 9.3 µM) | 8 µg/mL (≈ 9.3 µM) | – | 4 µg/mL (≈ 4.65 µM) | > 32 µg/mL | 4 µg/mL (≈ 4.65 µM) | > 32 µg/mL | 8 µg/mL (≈ 9.3 µM) | 4 µg/mL (≈ 4.65 µM) | MIC (E. faecalis strains): 1 µg/mL (≈ 1.16 µM); MIC (S. aureus strains; [17]): 8 µg/mL (≈ 9.3 µM); MIC (S. aureus strains; [18]): > 32 µg/mL; MIC (S. aureus strains; [19]): 8 µg/mL (≈ 9.3 µM); MIC (S. aureus strains; [20]): 8 µg/mL (≈ 9.3 µM); MIC (H. influenzae strains; [21]): 4 µg/mL (≈ 4.65 µM); MIC (H. influenzae strains; [22]): 16 µg/mL (≈ 18.6 µM); MIC (E. coli strains): 32 µg/mL (≈ 37.2 µM); MIC (A. baumannii strains): > 32 µg/mL; MIC (S. pneumoniae strains; [23]): 0.25 µg/mL (≈ 0.291 µM); MIC (S. pneumoniae strains; [24]): 16 µg/mL (≈ 18.6 µM); MIC (S. pneumoniae strains; [25]): > 32 µg/mL; MIC (S. pneumoniae strains; [26]): > 32 µg/mL; MIC (S. pneumoniae strains; [27]): 0.5 µg/mL (≈ 0.581 µM); MIC (K. pneumoniae strains): 8 µg/mL (≈ 9.3 µM) |
